The IC50 is the point on the concentration scale where inhibition reaches its midpoint. A lower IC50 goes with greater potency in that assay.

The structures appear in SMILES notation.

In assay [1] the target is T1, Endothelin receptor type B (Rattus norvegicus, UniProt P21451).
T1 sequence (P21451 whole entry): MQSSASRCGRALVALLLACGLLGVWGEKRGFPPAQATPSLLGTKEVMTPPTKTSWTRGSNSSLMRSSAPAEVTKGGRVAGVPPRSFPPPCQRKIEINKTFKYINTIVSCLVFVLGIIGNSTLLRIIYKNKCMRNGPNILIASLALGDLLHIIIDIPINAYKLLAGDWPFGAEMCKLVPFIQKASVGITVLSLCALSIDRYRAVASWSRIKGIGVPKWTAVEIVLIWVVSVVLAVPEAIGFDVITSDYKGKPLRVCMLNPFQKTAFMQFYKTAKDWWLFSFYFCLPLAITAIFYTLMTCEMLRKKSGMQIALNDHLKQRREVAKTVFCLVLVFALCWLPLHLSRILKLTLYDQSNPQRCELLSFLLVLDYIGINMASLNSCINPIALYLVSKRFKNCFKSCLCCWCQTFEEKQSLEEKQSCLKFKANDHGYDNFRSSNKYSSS
Put plainly: In vitro inhibitory potency for preventing sarafotoxin S6c induced constriction of rat tracheal rings (ETB receptor). The class given is functional, tissue-based, Trachea. Particulars: read-out: pA2 (converted).

Assay [2] concerns the target T2, Endothelin-1 receptor (Rattus norvegicus, UniProt P26684).
T2 sequence (P26684 whole entry): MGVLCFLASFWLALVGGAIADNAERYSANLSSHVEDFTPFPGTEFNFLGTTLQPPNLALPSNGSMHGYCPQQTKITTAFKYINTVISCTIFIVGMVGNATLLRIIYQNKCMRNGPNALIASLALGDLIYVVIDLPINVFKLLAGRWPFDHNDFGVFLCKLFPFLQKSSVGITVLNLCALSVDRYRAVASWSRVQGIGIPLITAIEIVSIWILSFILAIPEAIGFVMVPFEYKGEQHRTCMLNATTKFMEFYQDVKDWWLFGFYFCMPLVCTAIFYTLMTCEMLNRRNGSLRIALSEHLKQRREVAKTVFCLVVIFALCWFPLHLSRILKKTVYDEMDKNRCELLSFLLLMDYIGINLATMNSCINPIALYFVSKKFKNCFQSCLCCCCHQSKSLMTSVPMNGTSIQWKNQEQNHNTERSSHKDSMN
Put plainly: In vitro inhibitory potency for preventing ET-1 induced constriction of rat aortic rings (ETA receptor). As to conditions: read-out: pA2 (converted). The class given is functional.

The target of assay [3] is T3, Endothelin receptor type B (Homo sapiens, UniProt P24530).
T3 sequence (P24530 whole entry): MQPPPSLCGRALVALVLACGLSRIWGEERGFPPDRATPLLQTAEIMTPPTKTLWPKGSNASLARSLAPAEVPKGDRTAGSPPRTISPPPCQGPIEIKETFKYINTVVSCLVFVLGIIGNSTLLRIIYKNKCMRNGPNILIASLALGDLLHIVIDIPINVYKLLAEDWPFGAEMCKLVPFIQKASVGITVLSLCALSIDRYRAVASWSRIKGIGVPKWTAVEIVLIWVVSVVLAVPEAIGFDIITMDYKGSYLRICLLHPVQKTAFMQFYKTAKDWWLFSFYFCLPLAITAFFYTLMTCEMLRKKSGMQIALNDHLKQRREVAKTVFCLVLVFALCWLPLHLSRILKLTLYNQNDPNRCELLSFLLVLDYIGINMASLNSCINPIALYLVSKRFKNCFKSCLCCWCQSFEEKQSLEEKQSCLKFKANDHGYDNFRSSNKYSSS
The assay is described as follows: Inhibitory concentration required against [125I]ET1 binding to membranes of CHO cells expressing human ETB receptor. It counts as cell membranes.

For assay [4], the target named is T4, Endothelin-1 receptor (Homo sapiens, UniProt P25101).
T4 sequence (P25101 whole entry): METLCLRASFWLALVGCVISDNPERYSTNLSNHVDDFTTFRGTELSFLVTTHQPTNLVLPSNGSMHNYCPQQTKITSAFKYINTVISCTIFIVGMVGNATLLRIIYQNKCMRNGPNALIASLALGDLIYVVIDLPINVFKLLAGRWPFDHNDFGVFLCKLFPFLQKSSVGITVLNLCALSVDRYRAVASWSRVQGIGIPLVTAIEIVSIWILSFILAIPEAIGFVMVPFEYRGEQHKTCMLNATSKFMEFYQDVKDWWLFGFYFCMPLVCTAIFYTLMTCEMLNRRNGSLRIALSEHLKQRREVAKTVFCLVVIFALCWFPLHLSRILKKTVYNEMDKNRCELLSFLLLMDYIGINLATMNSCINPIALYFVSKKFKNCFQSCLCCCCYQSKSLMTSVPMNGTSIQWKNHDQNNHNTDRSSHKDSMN
The assay is described as follows: Inhibitory concentration required against [125I]ET1 binding to membranes of CHO cells expressing human ETA receptor. The class given is cell membranes.

In the case of `CCCS(=O)(=O)NCCCOc1nc(C2CC2)nc(NS(=O)(=O)c2ccc(C(C)C)cn2)c1Oc1ccccc1OC`, the Kb was 69.2 nM in assay [1] and 245 nM on Endothelin-1 receptor [2].

With `CCCS(=O)(=O)NCCOc1nc(N2CCOCC2)nc(NS(=O)(=O)c2ccc(C(C)C)cn2)c1Oc1ccccc1OC`, the Kb in assay [1] was 240 nM; at Endothelin-1 receptor [2], 832 nM.

In the case of `COc1ccccc1Oc1c(NS(=O)(=O)c2ccc(C(C)C)cn2)nc(-c2cc(OC)c(OC)c(OC)c2)nc1OCCNS(=O)(=O)c1ccc(C)cc1`, in assay [3], the IC50 is 4 nM. On Endothelin-1 receptor [2], the Kb was above 10000 nM.

In turn, `COc1ccccc1Oc1c(NS(=O)(=O)c2ccc(C)cn2)nc(Cc2ccc3c(c2)OCO3)nc1OCCNS(=O)(=O)c1cccs1` came in with an IC50 in assay [3] of 2110 nM.

As to `COc1ccccc1Oc1c(NS(=O)(=O)c2ccc(C(C)C)cn2)nc(N2CCOCC2)nc1OCCCNS(=O)(=O)c1ccc(C)cc1`, the Kb in assay [1] is 107 nM; on Endothelin-1 receptor [2] it was 4790 nM. Moreover, the results for the IC50 (in assay [3]; at Endothelin-1 receptor [4]) were 24 nM and 116 nM, respectively.

As for `CCS(=O)(=O)NCCCOc1nc(C2CC2)nc(NS(=O)(=O)c2ccc(C(C)C)cn2)c1Oc1ccccc1OC`, the Kb in assay [1] is 269 nM; on Endothelin-1 receptor [2], 105 nM.

For `CCS(=O)(=O)NCCOc1nc(N2CCOCC2)nc(NS(=O)(=O)c2ccc(C(C)C)cn2)c1Oc1ccccc1OC`, the IC50 in assay [3] was 122 nM; at Endothelin-1 receptor [4] it was 19 nM.

As for `CCS(=O)(=O)NCCOc1nc(C2CC2)nc(NS(=O)(=O)c2ccc(C)cn2)c1Oc1ccccc1OC`, the IC50 in assay [3] was 5660 nM; at Endothelin-1 receptor [4] it was 582 nM.

As for `COc1ccccc1Oc1c(NS(=O)(=O)c2ccc(C(C)C)cn2)nc(C2CC2)nc1OCCCNS(=O)(=O)c1ccc(C)cc1`, the Kb in assay [1] was 49 nM; at Endothelin-1 receptor [2] it was 309 nM. Also, the IC50 in assay [3] came to 19 nM.

For the compound `CCCS(=O)(=O)NCCOc1nc(C2CC2)nc(NS(=O)(=O)c2ccc(C)cn2)c1Oc1ccccc1OC`, the half-inhibitory concentration (IC50) in assay [3] was 4670 nM; on Endothelin-1 receptor [4] it was 1320 nM.

As to `CCCS(=O)(=O)NCCOc1nc(N2CCOCC2)nc(NS(=O)(=O)c2ccc(C)cn2)c1Oc1ccccc1OC`, the IC50 in assay [3] worked out at 931 nM; on Endothelin-1 receptor [4], 51 nM.

As to `CCS(=O)(=O)NCCOc1nc(C2CC2)nc(NS(=O)(=O)c2ccc(C(C)C)cn2)c1Oc1ccccc1OC`, the values for the Kb (in assay [1]; at Endothelin-1 receptor [2]) were 269 nM and 347 nM, respectively. Further, the IC50 in assay [3] stood at 397 nM; at Endothelin-1 receptor [4] it was 50 nM.

Regarding `COc1ccccc1Oc1c(NS(=O)(=O)c2ccc(C(C)C)cn2)nc(C2CC2)nc1OCCCNS(=O)(=O)c1cccs1`, the Kb was 9.12 nM in assay [1] and 120 nM at Endothelin-1 receptor [2]. This compound also displayed an IC50 in assay [3] of 4 nM.

As to `COc1ccccc1Oc1c(NS(=O)(=O)c2ccc(C)cn2)nc(C2CC2)nc1OCCNS(=O)(=O)c1cccs1`, the IC50 is 8240 nM in assay [3] and 1850 nM on Endothelin-1 receptor [4].

As for `CCCS(=O)(=O)NCCOc1nc(-c2cc(OC)c(OC)c(OC)c2)nc(NS(=O)(=O)c2ccc(C(C)C)cn2)c1Oc1ccccc1OC`, the results for the Kb (in assay [1]; on Endothelin-1 receptor [2]) were 33.1 nM and 3160 nM, respectively. The IC50 in assay [3] is 24 nM.

Turning to `COc1ccccc1Oc1c(NS(=O)(=O)c2ccc(C(C)C)cn2)nc(-c2cc(OC)c(OC)c(OC)c2)nc1OCCNS(=O)(=O)c1cccs1`, the Kb in assay [1] is 38.9 nM. In addition, the IC50 in assay [3] was determined as 7 nM.

For the compound `COc1ccccc1Oc1c(NS(=O)(=O)c2ccc(C(C)(C)C)cc2)nc(C2CC2)nc1OCCCNS(=O)(=O)c1cccs1`, the IC50 in assay [3] came out at 2 nM; on Endothelin-1 receptor [4], 14 nM.

Turning to `COc1ccccc1Oc1c(NS(=O)(=O)c2ccc(C(C)(C)C)cc2)nc(-c2ncccn2)nc1OCCNS(=O)(=O)c1cccs1`, the IC50 in assay [3] amounted to 16 nM. This counts as double-digit nanomolar.

Take `COc1ccccc1Oc1c(NS(=O)(=O)c2ccc(C)cn2)nc(-c2cc(OC)c(OC)c(OC)c2)nc1OCCNS(=O)(=O)c1cccs1`: the values for the IC50 (in assay [3]; on Endothelin-1 receptor [4]) were 351 nM and 2770 nM, respectively.

For `COc1ccccc1Oc1c(NS(=O)(=O)c2ccc(C)cn2)nc(-c2ccncc2)nc1OCCNS(=O)(=O)c1cccs1`, the IC50 in assay [3] was 3680 nM; at Endothelin-1 receptor [4], 2840 nM.

Take `COc1ccccc1Oc1c(NS(=O)(=O)c2ccc(C(C)C)cn2)nc(N2CCOCC2)nc1OCCNS(=O)(=O)c1ccc(C)cc1`: the 50% inhibitory concentration (IC50) in assay [3] came out at 9 nM; on Endothelin-1 receptor [4] it was 1380 nM.

As to `COc1ccccc1Oc1c(NS(=O)(=O)c2ccc(C)cn2)nc(-c2ccncc2)nc1OCCNS(=O)(=O)c1ccc(C)cc1`, in assay [3], the IC50 is 1540 nM.

On to `CCCS(=O)(=O)NCCOc1nc(C2CC2)nc(NS(=O)(=O)c2ccc(C(C)C)cn2)c1Oc1ccccc1OC`, for which the Kb in assay [1] is 363 nM; at Endothelin-1 receptor [2], 288 nM. The concentration for half-maximal inhibition (IC50) in assay [3] was 84 nM; on Endothelin-1 receptor [4], 80 nM.

As to `CCS(=O)(=O)NCCOc1nc(-c2ncccn2)nc(NS(=O)(=O)c2ccc(C(C)(C)C)cc2)c1Oc1ccccc1OC`, the values for the IC50 (in assay [3]; at Endothelin-1 receptor [4]) were 873 nM and 487 nM, respectively.

Turning to `COc1ccccc1Oc1c(NS(=O)(=O)c2ccc(C(C)(C)C)cc2)nc(-c2ncccn2)nc1OCCCNS(=O)(=O)c1cccs1`, the figures for the IC50 (in assay [3]; at Endothelin-1 receptor [4]) were 4 nM and 86 nM, respectively.

On to `CCS(=O)(=O)NCCCOc1nc(-c2ncccn2)nc(NS(=O)(=O)c2ccc(C(C)(C)C)cc2)c1Oc1ccccc1OC`, for which the IC50 in assay [3] was 101 nM; on Endothelin-1 receptor [4] it was 1590 nM.

For the origin of these results see ChEMBL document CHEMBL1136631, “Bis-sulfonamides as endothelin receptor antagonists” (Bioorg Med Chem Lett, 2003).
